Assay results from patent US6905861B2, “D-aminoacylases, method for producing the same, and method for producing D-amino acids using the same” (Daicel Chemical Industries, Ltd., priority 1998, dated 2005).

How the values were obtained:
[1] = system: D-aminoacylase (crude enzyme) of Pythium aphanidermaatum IFO 7030; assay: Crude enzyme activity for each N-Ac-D-amino acid substrate; assay type: biochemical; conditions: Pythium aphanidermaatum IFO 7030 crude enzyme; 20 mM substrate, 1 mM CoCl2, 50 mM phosphate buffer pH 7.0
Protocol: (§1) Auricularia auriculajudae IFO 5949, Pythium aphanidermaatum IFO 7030, and Menisporopsis novaezelandiae IFO 9179 were each inoculated into sterilized media (100 ml each) (Czapek Dox Broth for IFO 5949, YM1 medium for IFO 7030, and POTATO DEXTROSE BROTH for IFO 9179) in 500-ml Erlenmeyer flasks. The fungi were cultured on a rotary shaker at 210 rpm at 24° C. for 7 days and collected by centrifugation using a […] centrifuge with a RPR10-2 rotor at 8,000 rpm (12,500×g) for 20 min. […] Disrupted cells thus obtained were centrifuged using a […] centrifuge with a RPR20-2 rotor at 17,500 rpm (38,000×g) for 30 min at 4° C. to obtain the supernatant as the crude enzyme. […] Figures in the table denote the amount (mM) of D-amino acids produced from the corresponding N-acetyl-D-amino acids. The D-aminoacylase activity was detected in all the strains tested, producing D-amino acid from the corresponding N-acetyl-D-amino acid.

[2] = system: D-aminoacylase (crude enzyme) of Auricularia auriculajudae IFO 5949; assay: as above; assay type: biochemical; conditions: Auricularia auriculajudae IFO 5949 crude enzyme; 20 mM substrate, 1 mM CoCl2, 50 mM phosphate buffer pH 7.0
Protocol: as §1

[3] = system: D-aminoacylase (crude enzyme) of Menisporopsis novaezelandiae IFO 9179; assay: as above; assay type: biochemical; conditions: Menisporopsis novaezelandiae IFO 9179 crude enzyme; 20 mM substrate, 1 mM CoCl2, 50 mM phosphate buffer pH 7.0
Protocol: as §1

D-aminoacylase = assay: Substrate specificity of purified D-aminoacylase (TNBS method); assay type: biochemical, Hypomyces mycophilus IFO 6785
Protocol: The enzyme activity was assayed by determining the amount of amino acid produced using the TNBS method and the HPLC method. In the TMBS method, 100 mM Na2B4O7 (0.5 ml) was added to a sample solution containing amino acid (0.5 ml), 20 μl of 110 mM TNBS (trinitrobenzenesulfonic acid) was then added, and the resulting mixture was quickly stirred. After 5 min, 100 mM NaH2PO4 containing 1.5 mM Na2SO3 (2 ml) was added to the reaction mixture to terminate the color reaction, and the absorbance at 420 nm was measured. HPLC was performed by subjecting a sample solution containing amino acid to high-performance liquid chromatography using an ODS column (column, Wakosil II 5C18 (4.6 dia.×250 mm) (Wako Pure Chemical); eluent, CH3CN/50 mM KH2PO4. H3PO4 (pH 2.5)=2:8; detection, A280 nm; and flow rate, 1.0 ml/min). The retention times were 3.5 min for D-tryptophan and 9.8 min for N-acetyl-D-tryptophan. Using D-tryptophan as the assay standard, one unit (or U) of the enzyme was defined as the amount of the enzyme required to produce 1 μmol of D-tryptophan at 30° C. for 1 min.
Substrate specificity of the enzyme was expressed as the percentage of the specific activity compared with that for N-acetyl-D-methionine taken as 100%. N-chloroacetyl-D-phenylalanine, N-acetyl-D-valine, N-acetyl-D-phenylalanine, N-acetyl-D-tryptophan, N-acetyl-D-leucine, N-acetyl-L-valine, N-acetyl-L-phenylalanine, N-acetyl-L-tryptophan, and N-acetyl-L-leucine substrates were used for the comparison. The enzyme reaction was performed in 50 mM Tris-HCl (pH 7.5) containing 1 µl of the enzyme solution and 20 mM of each substrate (total volume 1.0 ml) at 30° C. for 20 min, and terminated by adding 0.5 ml of a TCA reaction terminating solution according to Tsai et al. (consisting of 110 mM trichloroacetic acid, 220 mM sodium acetate, and 330 mM acetic acid). The enzyme activity was assayed by the TNBS method as described in Example 4(2).

[4] = system: Hypomyces broomeanus IFO 9164 strain; assay: D-amino acid production from N-acetyl-D-amino acid by washed fungal cells; assay type: cell-based; conditions: Hypomyces broomeanus IFO 9164 cells; 0.1% substrate, Tris-HCl pH 7.5, 30° C., 24 hours
Protocol: (§2) A platinum loopful of Hypomyces aurantius IFO 6847 strain, Hypomyces broomeanus IFO 9164 strain, Hypomyces rosellus IFO 6911 strain, Hypomyces chrysospermus IFO 6817 strain, Hypomyces sepulcralis IFO 9102 strain, Hypomyces subiculosus IFO 6892 strain, Hypomyces mycophilus ATCC 76474 or IFO 6785 strain, or Fusarium solani IFO 9974 or IFO 9975 strain was inoculated into 25 ml of YM medium (containing 0.3% yeast extract, 0.3% malt extract, 0.5% peptone, and 2.0% glucose, pH 6.0) in a 500-ml shouldered flask. The fungi were shake-cultured at 24° C. for 3 days. After culturing, a 5-ml aliquot of the culture medium was centrifuged in a refrigerated centrifuge to collect the fungal cells. The cells were washed with physiological saline solution (5 ml) and collected by centrifugation again. A reaction solution (containing 0.1% N-acetyl-D-amino acid shown in Table 1 below in Tris-HCl buffer, pH 7.5) was then added to the cells thus collected. The mixture was incubated in a 5-ml test tube with shaking at 30° C. for 24 hours.
(§3) D-Amino acid thus produced was determined by high-performance liquid chromatography (column, CROWNPAK CR (Daicel Chemical); column temperature, 26° C.; cooled in ice for only valine; mobile phase, HClO4 aqueous solution, pH 2.0; flow rate, 1 ml/min; and detection, 200 nm).

[5] = system: Hypomyces aurantius IFO 6847 strain; assay: as above; assay type: cell-based; conditions: Hypomyces aurantius IFO 6847 cells; 0.1% substrate, Tris-HCl pH 7.5, 30° C., 24 hours
Protocol: as §2, §3

[6] = system: Hypomyces mycophilus IFO 6785 strain; assay: as above; assay type: cell-based; conditions: Hypomyces mycophilus IFO 6785 cells; 0.1% substrate, Tris-HCl pH 7.5, 30° C., 24 hours
Protocol: as §2, §3

[7] = system: Hypomyces subiculosus IFO 6892 strain; assay: as above; assay type: cell-based; conditions: Hypomyces subiculosus IFO 6892 cells; 0.1% substrate, Tris-HCl pH 7.5, 30° C., 24 hours
Protocol: as §2, §3

[8] = system: Hypomyces sepulcralis IFO 9102 strain; assay: as above; assay type: cell-based; conditions: Hypomyces sepulcralis IFO 9102 cells; 0.1% substrate, Tris-HCl pH 7.5, 30° C., 24 hours
Protocol: as §2, §3

[9] = system: Hypomyces rosellus IFO 6911 strain; assay: as above; assay type: cell-based; conditions: Hypomyces rosellus IFO 6911 cells; 0.1% substrate, Tris-HCl pH 7.5, 30° C., 24 hours
Protocol: as §2, §3

[10] = system: Hypomyces chrysospermus IFO 6817 strain; assay: as above; assay type: cell-based; conditions: Hypomyces chrysospermus IFO 6817 cells; 0.1% substrate, Tris-HCl pH 7.5, 30° C., 24 hours
Protocol: as §2, §3

[11] = system: Hypomyces mycophilus ATCC 76474; assay: as above; assay type: cell-based; conditions: Hypomyces mycophilus ATCC 76474 cells; 0.1% substrate, Tris-HCl pH 7.5, 30° C., 24 hours
Protocol: as §2, §3

Fusarium solani IFO 9974 = assay: as above; assay type: cell-based; conditions: Fusarium solani IFO 9974 cells; 0.1% substrate, Tris-HCl pH 7.5, 30° C., 24 hours
Protocol: as §2, §3

[12] = system: Fusarium solani IFO 9975 strain; assay: as above; assay type: cell-based; conditions: Fusarium solani IFO 9975 cells; 0.1% substrate, Tris-HCl pH 7.5, 30° C., 24 hours
Protocol: as §2, §3

amount of D-amino acids produced from the corresponding N-acetyl-D-amino acids [1]: 0.90 mM | amount of D-amino acids produced from the corresponding N-acetyl-D-amino acids [2]: 2.45 mM | amount of D-amino acids produced from the corresponding N-acetyl-D-amino acids [3]: 0.89 mM | percentage of the specific activity compared with that for N-acetyl-D-methionine taken as 100%, D-enantiomer (D-aminoacylase; 20 mM substrate, 50 mM Tris-HCl pH 7.5, 30° C., 20 min): 100% | activity of the enzyme for the substrate (in words) (D-aminoacylase; summary of Table 5): very active
SMILES: CSCC[C@@H](NC(C)=O)C(=O)O [N-acetyl-D-methionine]
D-amino acid produced from N-acetyl-D-amino acid [4]: 0.01 mg/mL | D-amino acid produced from N-acetyl-D-amino acid [5]: 0.02 mg/mL | D-amino acid produced from N-acetyl-D-amino acid [6]: 0.71 mg/mL | D-amino acid produced from N-acetyl-D-amino acid [7]: 0.03 mg/mL | D-amino acid produced from N-acetyl-D-amino acid [8]: 0.24 mg/mL | D-amino acid produced from N-acetyl-D-amino acid [9]: 0.14 mg/mL | D-amino acid produced from N-acetyl-D-amino acid [10]: 0.12 mg/mL | D-amino acid produced from N-acetyl-D-amino acid [11]: 0.10 mg/mL | D-amino acid produced from N-acetyl-D-amino acid (Fusarium solani IFO 9974): 0.04 mg/mL | D-amino acid produced from N-acetyl-D-amino acid [12]: 0.02 mg/mL
